Measurements as given in patent publication US6479544B1, “Therapeutic combinations of fatty acids” (Laxdale Limited, priority 2001, dated 2002).
Like-named read-outs stand apart in the source and are kept apart here.

Legend:
[1] = tested on: patients with schizophrenia; test: AA given to two patients who had already been taking EPA; format: in vivo, human; details: AA 1 g/day added in two patients already taking 2 g/day EPA for 3 months
Excerpt: The conclusion to be drawn from these studies is that EPA is desirable, not in itself but because it raises the AA level in membrane phospholipids. High doses of EPA, far from being valuable in themselves, may be undesirable because they lead to excessive loss of AA from membranes. The way to get around this issue, and to boost the clearly desirable effects of EPA, is to keep to relatively low doses of EPA, but also to boost the level of AA by administering the EPA with either AA or one of its precursors, DGLA or gamma-linolenic acid GLA.

[2] = tested on: patients with schizophrenia; test: Pilot study of AA alone in five patients with schizophrenia; format: in vivo, human; details: AA given alone
Excerpt: This interpretation was supported by a pilot study in which AA itself was given to five patients with schizophrenia. […] The administration of AA, without EPA to inhibit phospholipases, may lead to increased formation of eicosanoids rather than to incorporation of AA into phospholipids.

[3] = tested on: schizophrenia in patients; test: Trial of placebo and three doses of EPA in schizophrenia patients also taking clozapine, assessed by PANSS at baseline and 12 weeks; format: in vivo, human
Experimental: A trial was conducted of the administration of a placebo and three different doses of EPA, 1 g, 2 g and 4 g/day in the treatment of schizophrenia in patients who were also taking the antischizophrenic drug clozapine. […] 31 patents were entered into the study and followed for 12 weeks. They were assessed at baseline and 12 weeks using the Positive and Negative Symptom Scale for Schizophrenia (PANSS). Placebo produced a small effect, 1 g/day produced a larger effect, 2 g/day produced a large effect of 26.0% compared to the usual 15-20% improvements on this scale generated by existing drugs for schizophrenia.

[4] = format: in vivo, human; details: + means a rise, − a fall
Experimental: In these patients, and also in a further series of patients, the levels of DGLA, AA, EPA and DHA were measured in human red cells before starting treatment and after 12 weeks. As expected there was a dose-related rise in EPA which was greater the greater the dose. It was also expected that there would be a progressive decline in AA, the larger the EPA dose, the greater the fall in AA.

SMILES | Condition of patients with schizophrenia [1] | Condition of patients with schizophrenia [2] | Percentage improvement from baseline to 12 weeks on PANSS ([3]; 2 g/day) [%] | Percentage improvement from baseline to 12 weeks on PANSS ([3]; 1 g/day) [%] | Percentage improvement from baseline to 12 weeks on PANSS ([3]; 4 g/day) [%] | Change from baseline to 12 weeks in red cell concentration of AA ([4]; 1 g/d) | Change from baseline to 12 weeks in red cell concentration of AA ([4]; 2 g/d) | Change from baseline to 12 weeks in red cell concentration of AA ([4]; 4 g/d) [µg/g]
CCCCC/C=C\C/C=C\C/C=C\C/C=C\CCCC(=O)O [AA, arachidonic acid] | substantial further improvement | their condition deteriorated |  |  |  |  |  | 
CC/C=C\C/C=C\C/C=C\C/C=C\C/C=C\CCCC(=O)O [EPA, eicosapentaenoic acid] |  |  | 26.0 |  |  |  |  | 
CC/C=C\C/C=C\C/C=C\C/C=C\C/C=C\CCCC(=O)OCC [ethyl eicosapentaenoate] |  |  | 26.0 | 18.3 | 16.3 | +2.7 μg/g | +29.4 μg/g | -26.5
